System: 463943-066-T-J2-PDC complex spheroid growth
Assay: Anticancer human tumor 463943-066-T-J2-PDC patient-derived colon adenocarcinoma cell line growth inhibition [Asc]
Settings: for IC50: curve of first compound; for viability, T/C: stronger effect = lower value
Summary of the method: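 Complex solid-tumor spheroids incorporating human endothelial and mesenchymal stem cells received single agents or combinations over half-log dilution ranges anchored to clinical Cmax.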
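Also: compound exposure lasted 7 days.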
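For viability, T/C in this document: 100% = DMSO vehicle control wells.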

Cc1nc(N2CCC3(CC2)COC(C)C3N)c(CO)nc1Sc1ccnc(N)c1Cl (configuration not stated) + CNC(C)C(=O)NC1CN(S(=O)(=O)c2cccc(S(=O)(=O)N3CCC4CCC(C(=O)NC(c5ccccc5)c5ccccc5)N4C(=O)C(NC(=O)C(C)NC)C3)c2)CCC2CCC(C(=O)NC(c3ccccc3)c3ccccc3)N2C1=O was tested, and the IC50 (second compound 0.00316 µM) was > 3 µM, the IC50 (second compound 0.01 µM) was > 3 µM and the IC50 (second compound 0.0316 µM) was > 3 µM. For the same compound, the IC50 (second compound 0.1 µM) was > 3 µM, the IC50 (second compound 0.316 µM) was > 3 µM and the IC50 (second compound 1 µM) was > 3 µM. It also gave a viability, T/C (second compound 0.00316 µM, first compound 0.00949 µM) of 106%, a viability, T/C (second compound 0.00316 µM, first compound 0.03 µM) of 84.2% and a viability, T/C (second compound 0.00316 µM, first compound 0.0949 µM) of 85.5%. It also gave a viability, T/C (second compound 0.00316 µM, first compound 0.3 µM) of 86.6%, a viability, T/C (second compound 0.00316 µM, first compound 0.949 µM) of 81% and a viability, T/C (second compound 0.00316 µM, first compound 3 µM) of 70.3%. The viability, T/C (second compound 0.01 µM, first compound 0.00949 µM) was 96.2%, the viability, T/C (second compound 0.01 µM, first compound 0.03 µM) was 95.6% and the viability, T/C (second compound 0.01 µM, first compound 0.0949 µM) was 83.1%. For the same compound, the viability, T/C (second compound 0.01 µM, first compound 0.3 µM) was 85.5%, the viability, T/C (second compound 0.01 µM, first compound 0.949 µM) was 77.1% and the viability, T/C (second compound 0.01 µM, first compound 3 µM) was 71.8%. For the same compound, the viability, T/C (second compound 0.0316 µM, first compound 0.00949 µM) was 95.4%, the viability, T/C (second compound 0.0316 µM, first compound 0.03 µM) was 94.7% and the viability, T/C (second compound 0.0316 µM, first compound 0.0949 µM) was 81.3%. For the same compound, the viability, T/C (second compound 0.0316 µM, first compound 0.3 µM) was 78.8%, the viability, T/C (second compound 0.0316 µM, first compound 0.949 µM) was 77.6% and the viability, T/C (second compound 0.0316 µM, first compound 3 µM) was 69.1%. For the same compound, the viability, T/C (second compound 0.1 µM, first compound 0.00949 µM) was 96.8%, the viability, T/C (second compound 0.1 µM, first compound 0.03 µM) was 87% and the viability, T/C (second compound 0.1 µM, first compound 0.0949 µM) was 89.1%. It also gave a viability, T/C (second compound 0.1 µM, first compound 0.3 µM) of 88.1%, a viability, T/C (second compound 0.1 µM, first compound 0.949 µM) of 73.2% and a viability, T/C (second compound 0.1 µM, first compound 3 µM) of 66.3%. It also gave a viability, T/C (second compound 0.316 µM, first compound 0.00949 µM) of 92.3%, a viability, T/C (second compound 0.316 µM, first compound 0.03 µM) of 92.5% and a viability, T/C (second compound 0.316 µM, first compound 0.0949 µM) of 88.8%. The viability, T/C (second compound 0.316 µM, first compound 0.3 µM) was 83%, the viability, T/C (second compound 0.316 µM, first compound 0.949 µM) was 73.6% and the viability, T/C (second compound 0.316 µM, first compound 3 µM) was 66.5%. For the same compound, the viability, T/C (second compound 1 µM, first compound 0.00949 µM) was 84.1%, the viability, T/C (second compound 1 µM, first compound 0.03 µM) was 82.2% and the viability, T/C (second compound 1 µM, first compound 0.0949 µM) was 82%. For the same compound, the viability, T/C (second compound 1 µM, first compound 0.3 µM) was 73.5%, the viability, T/C (second compound 1 µM, first compound 0.949 µM) was 69.3% and the viability, T/C (second compound 1 µM, first compound 3 µM) was 64%.

Source: PubChem BioAssay AID1963422 (Molecular Pharmacology Branch, DTP, NCI, 2024)
